In patent EP2526954A1, “Bioavailable silicon complex, method for preparing same and use thereof” (Dexsil Labs, priority 2011, dated 2012):

How the values were obtained:
[1] = ATR-FTIR spectroscopy of the effect on artificial lipid bilayer membranes (phase transition); conditions: DPPC membranes
From the text: (§1) L'effet, sur les bicouches lipidiques qui constituent les membranes biologiques, d'un complexe suivant l'invention renfermant de l'acide orthosilicique et de la vanilline, a été étudié par spectroscopie ATR-FTIR. Des membranes artificielles formées de DPPC (1,2 dipalmitoyl-sn-glycéro-3-phosphatydilcholine) ou d'un mélange 85/15 de DPPC/DPPS (1,2 dipalmitoyl-sn-glycéro-3-phosphatydilsérine) ont été utilisées. Les membranes présentent des transitions de phase à des températures caractéristiques (Tc à 41 °C et 53°C pour le DPPC et le DPPS respectivement). […] Les résultats tendent à montrer que le complexe s'insère dans la bicouche lipidique et de ce fait diminue les interactions entre les lipides. […] Il se produit une séparation de phase et le mélange lipidique n'est plus homogène. Ceci suggère que le composé aromatique stabilisant l'acide orthosilicique a une affinité plus grande pour un des deux lipides ce qui provoque une ségrégation spatiale des composants de la membrane.

[2] = ATR-FTIR spectroscopy of the effect on artificial mixed lipid bilayer membranes (phase transition); conditions: DPPC/DPPS 85/15 membranes
From the text: as §1

[3] = en solution aqueuse, en dessous d'un pH de 6,8; cited from earlier work

Substance | effet sur la transition de phase des lipides [1] | effet sur le mélange lipidique [2] | dissociation du complexe [3]
complexe stabilisé d'acide orthosilicique et de 4-hydroxy-3-méthoxybenzaldéhyde (vanilline) [Exemple 1] | diminue l'énergie requise pour que les lipides participent à la transition de phase | induit une démixtion des deux lipides | –
complexe de silicium-catéchol | – | – | complètement dissocié
